Reference: US10124008B2, “Use of inhibitors of acid sphingomyelinase to treat acquired and inherited retinal degenerations” (Wisconsin Alumni Research Foundation, priority 2014, dated 2018)
“Also recorded” adds a separate entry of the source.

Tests used:
Type in all cases: cell-based, porcine
[1] = test system: acetylated tubulin in polarized primary RPE; assay: Immunofluorescence staining of acetylated and tyrosinated tubulin; conditions: inhibitors 10 μM for 3 h, 48 h after A2E treatment
Protocol: ALEXAFLUOR secondary antibodies were used at 1:500 and rhodamine-phalloidin (Cytoskeleton, PHDR1) at 1:200. Filters were mounted under coverslips on glass slides under […] (Vector labs), sealed and visualized with Andor Revolution XD spinning disk confocal microscope using a 60×1.4 NA oil objective with identical exposures and gains for each antibody. Acetylated tubulin-labeled stable microtubules (≥5 μm in length) after nocodazole treatment were analyzed manually in the Surpass mode of Imaris (Bitplane).
(§1) We performed two initial screens: first, we compared the ability of functional inhibitors (fluoxetine and amitriptyline) with that of the lone structural ASMase inhibitor zoledronic acid in decreasing acetylated tubulin. Here, polarized RPE monolayers with or without A2E were treated with one of the three inhibitors (10 μM, 3 h). Desipramine as a positive control. At the end of the incubation period, cells were fixed and stained for acetylated tubulin, imaged and the amount of acetylated tubulin in the cells was quantified. Second, we evaluated three additional drugs (sertraline, astemizole and fexofenadine) for their abilities to increase autophagy in the RPE. Cells with or without bisretinoids were transfected with mRFP-GFP-LC3, starved to induce autophagy, treated with drugs and imaged as in FIG. 9D.

[2] = test system: primary RPE cells; assay: Live imaging of tandem fluorescent mRFP-GFP-LC3 (tfLC3), autophagic flux; conditions: RPE with A2E; 3 h drug incubation (TO901317 1 μM 20 h)
Protocol: RPE cells were transfected with EGFP-LC3 or tandem fluorescent mRFP-GFP-LC3 (Addgene) using the AMAXA NUCLEOFECTOR II (Lonza). Approximately 1.5 million cells and 5 μg of plasmid DNA were used for each transfection. Cells were plated either on serum-coated glass-bottom dishes (Mattek) or […] filters at confluence.
Andor IQ2 software was used for image acquisition and Imaris x64 (Bitplane) for image analysis. […] Trafficking data was collected from three separate transfections for a total of at least 12-30 movies captured for treatment. During image acquisition care was taken to maintain the same laser power, exposure and electron-multiplying gain settings. […] After background subtraction (using the background subtraction algorithm and identical automatic threshold for all images) and smoothing (Gaussian algorithm with identical threshold settings for all images), Spots and Tracks algorithms were used to identify vesicles and follow them through time and cell-space to obtain total track length and track displacement.
We used tandem fluorescent mRFP-GFP-LC3 (tfLC3) to monitor autophagy in primary RPE cells in real time.
as §1

[3] = test system: acid sphingomyelinase (ASMase); assay: ASMase activity in primary RPE (sphingomyelinase fluorimetric assay kit); conditions: desipramine 10 μM for 3 hours
Protocol: Cells were harvested by trypsinization and cell pellets were washed with PBS to remove residual medium. Cells were lysed in HNTG lysis buffer (50 mM Hepes, pH 7.4, 150 mM NaCl, 10% glycerol, 1.5 mM MgCl2, 1% triton X-100) supplemented with protease inhibitors. Total protein was measured using the DC protein assay kit (BioRad). Cellular cholesterol was quantified using the Amplex Red cholesterol assay kit (INVITROGEN) as detailed previously (Lakkaraju et al., 2007). Single eyecups from wild-type and ABCA4^−/− mice were homogenized in 50 μl of lysis buffer and processed as above. For measuring acid sphingomyelinase activity, cells were lysed in acidic pH and assays were performed using the sphingomyelinase fluorimetric assay kit from Cayman Chemicals according to the manufacturer's protocol.

[4] = test system: CD59 on polarized primary RPE; assay: Surface CD59 staining; conditions: RPE with A2E; short treatment with desipramine
Protocol: AlexaFluor secondary antibodies were used at 1:500. Filters were mounted under coverslips on glass slides under VECTASHIELD (Vector labs), sealed and visualized with Andor Revolution XD spinning disk confocal microscope using 60×1.4 NA or 100×1.49 NA oil objectives with identical exposures and gains for each antibody. Quantification of surface CD59 staining was performed using Imaris.

[5] = test system: LC3B-II and p62 in primary RPE monolayers; assay: Immunoblotting of LC3B-II and p62 in polarized primary RPE monolayers; conditions: A2E-laden RPE after mTOR inhibition; TO901317 1 μM 20 h, desipramine 10 μM 3 h
Protocol: RPE harvested from mouse eyecups were sonicated in lysis buffer with protease inhibitors for 10 min. Primary RPE on TRANSWELL filters were harvested and lysed with NE-PER nuclear and cytoplasmic extraction reagents (Thermo Scientific #78833) according to the manufacturer's recommendation. Protein concentrations were measured with DC assay (BioRad). […] Proteins were then transferred onto nitrocellulose membrane using IBLOT dry transfer system (INVITROGEN), blocked in 5% milk in TBS-T for 1 hour before incubating in primary antibody overnight at 4° C. Membranes were probed with antibodies to LC3B (1:3000, Novus NB600-1384 for pig and 1:500, Sigma L7543 for mouse), p62/SQSTM1 (1:1000, ARP03-GP62-C) and actin (1:5000, Santa Cruz) followed by horseradish peroxidase-conjugated secondary antibodies. Immunoblots were visualized by ECL substrate (Thermo Scientific) and quantified using Image Studio (LI-COR). […] Other drugs used were the mTOR inhibitors Torin 1 and Torin 2 (50 nM and 1.5 μM, respectively, for 2 h, TOCRIS), the vacuolar ATPase inhibitor bafilomycin A1 (100 nM for 2 h, EMD Millipore), the LXRα agonist TO901317 (1 μM for 20 h, Cayman Chemicals), the HDAC6 inhibitor trichostatin A (TSA, 500 nM, 16 h, Sigma) and the ASMase inhibitor desipramine (10 μM for 3 h, Sigma). To depolymerize MTs, cells were treated with 33 μM nocodazole for 30 minutes, followed by cold-treatment (4° C.) for 30 minutes (Kreitzer et al., 2003). At the concentrations and exposure times used, none of these drugs caused alterations in RPE cell morphology or physiology (monitored by TER measurements, ZO-1 and organelle marker staining). […] Conversion of LC3B-I to its lipidated form (LC3B-II) is an indicator of autophagosome biogenesis and p62 levels are a measure of autophagic flux (Klionsky et al., 2012).

With `CNCCCN1c2ccccc2CCc2ccccc21` [desipramine] the “acetylated tubulin in RPE with A2E” value [1] was “decreased acetylated tubulin in cells with A2E”, the “autophagic flux / autophagosome-lysosome fusion (tfLC3 EGFP:mRFP)” value [2] was “corrected defects in autophagosome-lysosome fusion; also recorded: completely reversed the autophagic block induced by A2E” and the ASMase activity [3] was “decreased ASMase activity and ceramide levels”. For the same compound, the “surface CD59 levels” value [4] was “increased surface CD59 levels”, the “LC3B-II levels / autophagosome biogenesis (immunoblot)” value [5] was “increased LC3B-II levels in RPE with A2E comparable to those in control cells” and the “p62 levels / autophagic flux (immunoblot)” value [5] was “decreased p62 levels in cells with A2E”.
